US20130273096A1, “Therapeutic Sulfated Polysaccharides, Compositions Thereof, and Methods for Treating Patients” (priority 2011, published 2013)

Legend:
[1] = test system: human coronary artery endothelial cells (HCAEC); experiment: LDL permeability of HCAEC monolayers; format: cell-based; settings: 12.5 to 12004/mL, 24 hrs to 5 day, FIGS. 6 and 7
Description: To test whether any of the RS isoforms could inhibit apoptosisn in human coronary artery endothelial cells (HCAEC), the HCAEC (human coronary artery endothelial cell) monolayers were incubated with each of two isoforms, RS#1 or RS#2, at concentrations ranging from 12.5 to 12004/mL for a period of time ranging from 24 hrs to 5 day, before the permeability of LDL (low density lipoprotein) was measured. In addition, some monolayers were induced to undergo apoptosis with TNF-α/CHX in the presence or absence of RS#1 or RS#2 and the permeability of LDL was measured. As shown in the figure, Dil means 11′-dioctadecyl-3,3-3′,3′-tetramethylindo-carbocyanide perchlorate. […] When the monolayers were induced to undergo apoptosis the permeability increased by ˜2-3-fold.

HCAEC monolayers [2] = experiment: Water flux through HCAEC monolayers; format: cell-based, human; settings: FIG. 8
HCAEC monolayers [3] = experiment: Heparan sulfate immunostaining of HCAEC monolayers; format: cell-based, human; settings: 1004/mL for 24 hrs; confocal microscope; FIG. 9
Description: HCAEC monolayers were incubated with RS#1 at 1004/mL for 24 hrs and immunostaining for heparan sulfate was performed. The monolayers were then imaged using a laser scanning confocal microscope. One control and one RS#1-treated monolayers were stained and four representative fields from each case were imaged. In control monolayers, heparan sulfate immunostaining seemed to be concentrated on the cell-cell junction area (FIG. 9A).

endothelial cells = experiment: Heparan sulfate (HS) stimulus experiment; format: cell-based; settings: vs control; FIG. 10
Description: A heparin sulfate (HS) stimulus experiment was performed as known in the art, using the four RS isoforms described herein. […] While the results shown here are limited to the RS isoforms studied, the type of polysaccharides to which this applies can be expanded to other classes of compounds that likely have similar effects, such as PUFAs, non-sulfated PS, other polymers, and the like. These RS (and other similar acting substances found in nature) can be used for in vivo HS and GAG production instead of administering HS or other GAGS for therapeutic effect.

endothelial cells (EC) = experiment: Disaccharide analysis of heparan sulfate synthesized by endothelial cells; format: cell-based; settings: EC exposed to RS vs control cell fraction; FIG. 4
Description: Purified heparin sulfate (HS) from the endothelial cells (EC) exposed or not exposed to RS #2 were incubated with a mixture of heparin lyases (heparinase I and II, 2.5 mlU each, available from Sigma) and the disaccharides produced by the enzymatic action were separated on a Phenosphere SAX column (Phenomenex, Torrance, Calif., USA) 150×4.6 mm using a NaCl gradient of 0-1 M in 30 min with a flux of 1 mL/min. Individual fractions (0.5 mL) were collected and counted using a micro-beta counter. […] The abbreviations used in the figure are: GlcNS(6S)=2-deoxy-6-O-sulfo-2-(sulfoamino)-α-D-glucopyranoside; GlcA=β-D-glucopyranuronosyl; GlcNS(3S,6S)=2-deoxy-3,6-di-O-sulfo-2-(sulfoamino)-α-D-glucopyranosyl; IdoA(2S)=2-O-sulfo-α-L-idopyranuronosyl; and, GlcNS(6S)OMe=methyl-O-2-deoxy-6-O-sulfo-2-(sulfoamino)-α-D-glucopyranoside.
As for the heparin stimulus, the HS produced by these cells have more of heparin sequences [-4) IdoA2S(1-4)GlcNS,6S] (heparin's basic structure). […] Counting from the left, the RS-induced heparans are chains of disaccharide pairs like sugar groups number 4-5 hooked together. Additionally, the major fraction of stimulated heparan sulfate produced are tri-sulfated discaccharides (Iodo2S-GlcNS,6S), typical of the major sequence in heparin.

Substance | reduction of LDL permeability of control monolayers [1] | decrease of water flux through HCAEC monolayers (HCAEC monolayers [2]) | coverage of heparan sulfate on HCAEC monolayers (immunostaining) (HCAEC monolayers [3]) | cellular HS content (cellular fraction of heparans) (endothelial cells) | heparin sequences composed of the tri-sulfated disaccharide (ΔU2S-GlcNS,6S) in HS synthesized by EC (endothelial cells (EC))
L-arginine (L-Arg) salt of rhamnan sulfate [RS #1] | 5 fold | ~50% | increased the coverage |  | 
rhamnan sulfate [RS #3] |  |  |  | no change | 
rhamnan sulfate [RS #2] | 5 fold | ~20% |  |  | significant increase
